Among the test systems are MCF7 breast; SR leukemia; HOP-92 NSCLC; U251 CNS; MDA-MB-435; HS 578T breast; OVCAR-3 ovarian; RXF 393 renal; MALME-3M melanoma; M14 melanoma; ACHN renal; UACC-257 melanoma; SNB-19 CNS; SK-MEL-5 melanoma; HCC-2998 colon; SF-268 CNS.
Holding throughout (test): NCI anticancer screen, dose series, 48 h

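Grown in 96-well plates, cells were treated for 48 hours with each compound at five concentrations. Insufficient inhibition: endpoint recorded as highest concentration tested. TGI: concentration producing complete growth inhibition.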

As for `COC(=O)CC1(O)C(C=C(C)C)C(C(=O)OC)C(=O)C(C(=O)OC)C1C(=O)OC` (stereo not drawn), the TGI in the assay with MCF7 breast, in the assay on SR leukemia, in the assay with HOP-92 NSCLC, in the assay on U251 CNS, with MDA-MB-435 and with HS 578T breast was over 100 µM each time. In addition, the TGI in the assay with OVCAR-3 ovarian, in the assay with RXF 393 renal, in the assay with MALME-3M melanoma, in the assay with M14 melanoma, in the assay with ACHN renal and in the assay with UACC-257 melanoma was over 100 µM throughout. The TGI with SNB-19 CNS, in the assay with SK-MEL-5 melanoma, with HCC-2998 colon and with SF-268 CNS was over 100 µM each time.

Regarding `CCC(/C=C/c1ccccc1)=N\NC(=S)N/N=C(/C=C/c1ccccc1)CC`, the TGI is over 100 µM with MCF7 breast; 91.3 µM in the assay on SR leukemia; over 100 µM in the assay with HOP-92 NSCLC; over 100 µM in the assay on U251 CNS; over 100 µM in the assay with MDA-MB-435; over 100 µM in the assay with HS 578T breast. Also, the TGI with OVCAR-3 ovarian, in the assay on RXF 393 renal, in the assay with MALME-3M melanoma, in the assay on M14 melanoma, in the assay with ACHN renal and with UACC-257 melanoma was over 100 µM throughout. Further, the TGI in the assay on SNB-19 CNS, in the assay on SK-MEL-5 melanoma, with HCC-2998 colon and in the assay on SF-268 CNS was over 100 µM in each case.

As to `O=C(O)c1cc2c(cc1S(=O)(=O)O)C1C(C3C2C2(Cl)C(Cl)=C(Cl)C3(Cl)C2(Cl)Cl)C2(Cl)C(Cl)=C(Cl)C1(Cl)C2(Cl)Cl` (stereo not drawn), the TGI with MCF7 breast is over 100 µM; in the assay on SR leukemia it was 74.7 µM; in the assay with HOP-92 NSCLC it was 85.2 µM; in the assay with U251 CNS, over 100 µM; in the assay with MDA-MB-435, over 100 µM; in the assay on HS 578T breast, over 100 µM. For the same compound, the TGI in the assay with OVCAR-3 ovarian, with RXF 393 renal, in the assay with MALME-3M melanoma, with M14 melanoma, in the assay with ACHN renal and with UACC-257 melanoma was over 100 µM throughout. In addition, the TGI in the assay on SNB-19 CNS is over 100 µM; in the assay with SK-MEL-5 melanoma, over 100 µM; with HCC-2998 colon it was 51.2 µM; in the assay with SF-268 CNS, over 100 µM.

As to `COC(=O)c1ccc(NCC2=CC(=O)c3ccccc3C2=O)cc1`, the TGI in the assay on MCF7 breast is over 100 µM; with SR leukemia, 39.4 µM; in the assay with HOP-92 NSCLC it was 12.3 µM; in the assay on U251 CNS, 63 µM; in the assay with MDA-MB-435, 30.3 µM; with HS 578T breast, 76.4 µM. In addition, the TGI was 26.7 µM in the assay on OVCAR-3 ovarian; over 61.7 µM with RXF 393 renal; 19.9 µM in the assay on MALME-3M melanoma; 37.1 µM in the assay on M14 melanoma; 42.4 µM in the assay on ACHN renal; 29.4 µM in the assay with UACC-257 melanoma. Also, the TGI with SNB-19 CNS was 99.7 µM; with SK-MEL-5 melanoma, 27.6 µM; in the assay with HCC-2998 colon, over 63.3 µM; in the assay on SF-268 CNS it was 66.2 µM.

In the case of `O=[N+]([O-])/C(C(Cl)=C(Cl)Cl)=C(/Sc1ccccc1)N1CCOCC1`, the TGI came to 8.53 µM in the assay with MCF7 breast; 5.62 µM in the assay on SR leukemia; 6.27 µM with HOP-92 NSCLC; 23.5 µM with U251 CNS; 9.2 µM in the assay on MDA-MB-435; 59.5 µM with HS 578T breast. Further, the TGI with OVCAR-3 ovarian was determined as 8.87 µM; in the assay on RXF 393 renal it was 3.7 µM; with MALME-3M melanoma it was 18.2 µM; in the assay on M14 melanoma, 9.24 µM; in the assay with ACHN renal, 15 µM; in the assay on UACC-257 melanoma it was 23.6 µM. The TGI in the assay on SNB-19 CNS was 20.2 µM; with SK-MEL-5 melanoma, 11.4 µM; in the assay on HCC-2998 colon, 29.9 µM; with SF-268 CNS it was 17 µM.

On to `CCOC(=O)CC[C@@H](NC(=O)c1ccc(NCc2ccc3nc(OC)c(OC)nc3c2)cc1)C(=O)OCC`, for which the TGI in the assay on MCF7 breast is over 31.6 µM; with SR leukemia, over 87.4 µM; in the assay with HOP-92 NSCLC, 36.2 µM; in the assay with U251 CNS it was over 100 µM; with MDA-MB-435, 99.2 µM; with HS 578T breast it was over 80.9 µM. Also, the TGI in the assay with OVCAR-3 ovarian is 38.3 µM; in the assay on RXF 393 renal it was over 58.1 µM; in the assay with MALME-3M melanoma, 39 µM; with M14 melanoma, 32 µM; in the assay on ACHN renal it was 58.2 µM; with UACC-257 melanoma it was 31.4 µM. In addition, the TGI in the assay with SNB-19 CNS is over 100 µM; with SK-MEL-5 melanoma it was 27.9 µM; in the assay with HCC-2998 colon, over 100 µM; in the assay with SF-268 CNS, over 100 µM.

With `C/C(=N/NC(=S)N(Cc1ccccn1)Cc1ccccn1)c1cnccn1`, the TGI in the assay with MCF7 breast was over 100 µM; in the assay with SR leukemia it was over 55.2 µM; with HOP-92 NSCLC, over 37.6 µM; with U251 CNS it was over 47.9 µM; with MDA-MB-435, 35.6 µM; in the assay on HS 578T breast it was 55.7 µM. Further, the TGI in the assay on OVCAR-3 ovarian is 12.6 µM; in the assay on RXF 393 renal it was 17.4 µM; with MALME-3M melanoma it was 7.53 µM; with M14 melanoma, over 35.9 µM; in the assay with ACHN renal, 2.39 µM; in the assay with UACC-257 melanoma it was 8.61 µM. Moreover, the TGI in the assay on SNB-19 CNS is 18.8 µM; in the assay on SK-MEL-5 melanoma, over 37.9 µM; with HCC-2998 colon it was over 43.4 µM; with SF-268 CNS, 14 µM.

As to `C=CC1(CBr)CCC(C(C)(C)Br)O1` (stereo not drawn), the TGI in the assay on MCF7 breast worked out at 34.1 µM; with SR leukemia, 8.58 µM; with HOP-92 NSCLC, 28.6 µM; in the assay on U251 CNS, 15.9 µM; in the assay on MDA-MB-435, 26.6 µM; in the assay on HS 578T breast, 39.6 µM. Besides, the TGI is 22.6 µM in the assay with OVCAR-3 ovarian; 27.3 µM with RXF 393 renal; 27.8 µM in the assay on MALME-3M melanoma; 27.7 µM in the assay with M14 melanoma; 30.2 µM with ACHN renal; 28.9 µM in the assay on UACC-257 melanoma. Also, the TGI in the assay with SNB-19 CNS was found to be 30.1 µM; with SK-MEL-5 melanoma it was 23.2 µM; in the assay with HCC-2998 colon, 30.5 µM; in the assay with SF-268 CNS, 38.2 µM.

The values are drawn from PubChem BioAssay (NCI).
